Laboratory results as given in patent US20210254056A1, “IDENTIFICATION AND TARGETED MODULATION OF GENE SIGNALING NETWORKS” (CAMP4 THERAPEUTICS CORPORATION, priority 2017, published 2021).

System: hepatocytes
Assay: RNA-seq of hepatocytes treated with Phase III failure compounds
Details: for significant changes in gene expression: RNA-seq of Table 36, FPKM≥0.5, log 2(fold-change)≥1, q-value≤0.05; for significant modulation of expression of any of the genes analyzed: p≤0.05
Procedure: RNA-seq was performed to determine the effects of the compounds on hepatocytes.
Significance was determined by the criteria of FPKM≥0.5, a log 2(fold-change)≥1, and a […].

COCCOc1ccc(N2CCN(CCn3ncc4c3nc(N)n3nc(-c5ccco5)nc43)CC2)cc1 [Preladenant]
Number (#) of genes having significantly changed expression (RNA-seq, Phase III failure compounds, hepatocytes, significance: FPKM≥0.5, log 2(fold-change)≥1, q-value≥0.05 (so in the source)): 317 | significant modulation of expression of disease genes (RNA-seq, q≤0.05, hepatocytes, genes in the value or listed in the block): significantly (q≤0.05) modulate expression | B2M expression, RNA-seq result (gene B2M, hepatocytes): 0.09 | B9D2 expression, RNA-seq result (gene B9D2, hepatocytes): −0.56 | BAAT expression, RNA-seq result (gene BAAT, hepatocytes): −0.58 | BBOX1 expression, RNA-seq result (gene BBOX1, hepatocytes): −0.56 | BBS10 expression, RNA-seq result (gene BBS10, hepatocytes): −0.21 | BCHE expression, RNA-seq result (gene BCHE, hepatocytes): −0.63 | BCKDHB expression, RNA-seq result (gene BCKDHB, hepatocytes): −0.78 | BCKDK expression, RNA-seq result (gene BCKDK, hepatocytes): −0.48 | BCO1 expression, RNA-seq result (gene BCO1, hepatocytes): −1.07 | BCR expression, RNA-seq result (gene BCR, hepatocytes): −0.62 | BLNK expression, RNA-seq result (gene BLNK, hepatocytes): 0.53 | BLOC1S3 expression, RNA-seq result (gene BLOC1S3, hepatocytes): 0.3 | BMPR1A expression, RNA-seq result (gene BMPR1A, hepatocytes): 0.11 | BRAF expression, RNA-seq result (gene BRAF, hepatocytes): 0.46 | BSCL2 expression, RNA-seq result (gene BSCL2, hepatocytes): −0.26 | BTD expression, RNA-seq result (gene BTD, hepatocytes): −0.16 | C4A expression, RNA-seq result (gene C4A, hepatocytes): 0.16 | C9 expression, RNA-seq result (gene C9, hepatocytes): −0.38 | C10orf10 expression, RNA-seq result (gene C10orf10, hepatocytes): 0.14 | C10orf11 expression, RNA-seq result (gene C10orf11, hepatocytes): −0.32 | C15orf41 expression, RNA-seq result (gene C15orf41, hepatocytes): −0.17 | CA2 expression, RNA-seq result (gene CA2, hepatocytes): 0.76 | CA5A expression, RNA-seq result (gene CA5A, hepatocytes): −0.56 | CA12 expression, RNA-seq result (gene CA12, hepatocytes): 0.43 | CAV1 expression, RNA-seq result (gene CAV1, hepatocytes): −0.02 | CCND1 expression, RNA-seq result (gene CCND1, hepatocytes): −0.89 | CD46 expression, RNA-seq result (gene CD46, hepatocytes): 0.34 | CD81 expression, RNA-seq result (gene CD81, hepatocytes): −0.26 | CD320 expression, RNA-seq result (gene CD320, hepatocytes): −0.95 | CDAN1 expression, RNA-seq result (gene CDAN1, hepatocytes): −0.32 | CDH1 expression, RNA-seq result (gene CDH1, hepatocytes): −0.29 | CEP19 expression, RNA-seq result (gene CEP19, hepatocytes): −0.54 | CEP83 expression, RNA-seq result (gene CEP83, hepatocytes): 0.05 | CEP164 expression, RNA-seq result (gene CEP164, hepatocytes): −0.48 | CEP290 expression, RNA-seq result (gene CEP290, hepatocytes): 0.41 | CFB expression, RNA-seq result (gene CFB, hepatocytes): 0.26 | CFHR2 expression, RNA-seq result (gene CFHR2, hepatocytes): −0.22 | CHRM3 expression, RNA-seq result (gene CHRM3, hepatocytes): 0.06 | CIDEC expression, RNA-seq result (gene CIDEC, hepatocytes): −1.38 | CLDN1 expression, RNA-seq result (gene CLDN1, hepatocytes): −0.26 | COG1 expression, RNA-seq result (gene COG1, hepatocytes): −0.08

CCCn1c(=O)c2[nH]c(C34CC5CC(CC3C5)C4)nc2n(CCC)c1=O [Rolofylline (KW-3902), Rolofylline]
significant changes in gene expression: not observed to cause any significant changes in gene expression | significant modulation of expression of any of the genes analyzed (RNA-seq, hepatocytes): not observed to significantly modulate expression

CNC1(C)[C@H]2CCC(C2)C1(C)C.Cl (stereo partly drawn) [S-(+)-MecaMylaMine Hydrochloride]
significant changes in gene expression: not observed to cause any significant changes in gene expression | significant modulation of expression of any of the genes analyzed (RNA-seq, hepatocytes): not observed to significantly modulate expression

Cn1cnc2c(F)c(Nc3ccc(Br)cc3Cl)c(C(=O)NOCCO)cc21 [Selumetinib]
RNA-seq results, CYP2B6 expression: 0.38 | RNA-seq results, CYP2C19 expression: 0.76 | RNA-seq results, CYP2D6 expression: 0.03 | RNA-seq results, CYP3A4 expression: 0.08 | RNA-seq results, CYP7B1 expression: −0.15 | RNA-seq results, CYP39A1 expression: −0.27 | RNA-seq results: CYP2B6 expression: −0.08 | RNA-seq results: CYP2C19 expression: 0.1 | RNA-seq results: CYP2D6 expression: 0.16 | RNA-seq results: CYP3A4 expression: 0.11 | RNA-seq results: CYP7B1 expression: −0.3 | RNA-seq results: CYP39A1 expression: 0.08 | RNA-seq results: A1BG expression (gene A1BG, hepatocytes): 0.00 | RNA-seq results: AGTR1 expression (gene AGTR1, hepatocytes): −0.55 | RNA-seq results: AGXT expression (gene AGXT, hepatocytes): 0.22 | RNA-seq results: AHI1 expression (gene AHI1, hepatocytes): 0.01 | RNA-seq results: AMPD3 expression (gene AMPD3, hepatocytes): 0.22 | RNA-seq results: AMT expression (gene AMT, hepatocytes): 0.29 | RNA-seq results: ANGPTL3 expression (gene ANGPTL3, hepatocytes): −0.67 | RNA-seq results: ANKS4B expression (gene ANKS4B, hepatocytes): −0.06 | RNA-seq results: ANKS6 expression (gene ANKS6, hepatocytes): −0.02 | RNA-seq results: ANPEP expression (gene ANPEP, hepatocytes): 0.04 | RNA-seq results: AOC2 expression (gene AOC2, hepatocytes): 0.28 | RNA-seq results: APOA2 expression (gene APOA2, hepatocytes): −0.45 | RNA-seq results: APOA5 expression (gene APOA5, hepatocytes): 0.13 | RNA-seq results: APOB expression (gene APOB, hepatocytes): −0.10 | RNA-seq results: COG5 expression (gene COG5, hepatocytes): −0.14 | RNA-seq results: COG6 expression (gene COG6, hepatocytes): 0.1 | RNA-seq results: COL1A1 expression (gene COL1A1, hepatocytes): 0.41 | RNA-seq results: COX6A1 expression (gene COX6A1, hepatocytes): 0.02 | RNA-seq results: CP expression (gene CP, hepatocytes): 0.26 | RNA-seq results: CPS1 expression (gene CPS1, hepatocytes): 0.52 | RNA-seq results: CPT1A expression (gene CPT1A, hepatocytes): 0.19 | RNA-seq results: CPT2 expression (gene CPT2, hepatocytes): −0.2 | RNA-seq results: CROT expression (gene CROT, hepatocytes): −0.4 | RNA-seq results: CSPP1 expression (gene CSPP1, hepatocytes): −0.14 | RNA-seq results: CTC1 expression (gene CTC1, hepatocytes): 0.03 | RNA-seq results: CTDSP2 expression (gene CTDSP2, hepatocytes): −0.14 | RNA-seq results: CTH expression (gene CTH, hepatocytes): 0.67 | RNA-seq results: CTNS expression (gene CTNS, hepatocytes): 0.69 | RNA-seq results: CTSF expression (gene CTSF, hepatocytes): 0.19 | RNA-seq results: CTSK expression (gene CTSK, hepatocytes): 0.08 | RNA-seq results: CYB5A expression (gene CYB5A, hepatocytes): −0.09 | RNA-seq results: CYB5R3 expression (gene CYB5R3, hepatocytes): 0.1 | RNA-seq results: CYP27A1 expression (gene CYP27A1, hepatocytes): 0.14 | RNA-seq results: DAO expression (gene DAO, hepatocytes): −0.11 | RNA-seq results: DBT expression (gene DBT, hepatocytes): −0.16 | RNA-seq results: DCDC2 expression (gene DCDC2, hepatocytes): −1.04 | RNA-seq results: DCXR expression (gene DCXR, hepatocytes): 0.01 | RNA-seq results: FABP1 expression (gene FABP1, hepatocytes): 0.06 | RNA-seq results: FADD expression (gene FADD, hepatocytes): −0.08 | RNA-seq results: FAM111A expression (gene FAM111A, hepatocytes): 0.12 | RNA-seq results: FAM111B expression (gene FAM111B, hepatocytes): −1.27 | RNA-seq results: FAN1 expression (gene FAN1, hepatocytes): −0.37 | RNA-seq results: FARS2 expression (gene FARS2, hepatocytes): −0.21 | RNA-seq results: FASLG expression (gene FASLG, hepatocytes): −0.55 | RNA-seq results: FGA expression (gene FGA, hepatocytes): 0.07 | RNA-seq results: FGD1 expression (gene FGD1, hepatocytes): −0.4 | RNA-seq results: FGFR2 expression (gene FGFR2, hepatocytes): −0.97 | RNA-seq results: FIG4 expression (gene FIG4, hepatocytes): 0.29 | RNA-seq results: FIS1 expression (gene FIS1, hepatocytes): −0.06 | RNA-seq results: FTCD expression (gene FTCD, hepatocytes): 0.18 | RNA-seq results: FTH1 expression (gene FTH1, hepatocytes): 0.45 | RNA-seq results: FUCA1 expression (gene FUCA1, hepatocytes): 0.02 | RNA-seq results: FXN expression (gene FXN, hepatocytes): −0.33 | RNA-seq results: G6PC3 expression (gene G6PC3, hepatocytes): −0.17 | RNA-seq results: G6PC expression (gene G6PC, hepatocytes): 1.05 | RNA-seq results: G6PD expression (gene G6PD, hepatocytes): 0.7 | RNA-seq results: GALK1 expression (gene GALK1, hepatocytes): 0.05 | RNA-seq results: GALK2 expression (gene GALK2, hepatocytes): 0.08 | RNA-seq results: GALT expression (gene GALT, hepatocytes): 0.37 | RNA-seq results: GATA6 expression (gene GATA6, hepatocytes): −0.01 | RNA-seq results: GATM expression (gene GATM, hepatocytes): −0.21 | RNA-seq results: GBA expression (gene GBA, hepatocytes): 0.33 | RNA-seq results: GBE1 expression (gene GBE1, hepatocytes): 0.06 | RNA-seq results: GCH1 expression (gene GCH1, hepatocytes): 0.02 | RNA-seq results: GCKR expression (gene GCKR, hepatocytes): 0.43 | RNA-seq results: GCLC expression (gene GCLC, hepatocytes): 0.07 | RNA-seq results: GOSH expression (gene GOSH, hepatocytes): −0.26 | RNA-seq results: RRM2B (gene RRM2B, hepatocytes): −0.30 | RNA-seq results: RSAD1 (gene RSAD1, hepatocytes): −0.06 | RNA-seq results: SAMHD1 (gene SAMHD1, hepatocytes): −0.29 | RNA-seq results: SC5D (gene SC5D, hepatocytes): −0.23 | RNA-seq results: SCARB1 (gene SCARB1, hepatocytes): 0.08 | RNA-seq results: SCN9A (gene SCN9A, hepatocytes): 0.14 | RNA-seq results: SDCCAG8 (gene SDCCAG8, hepatocytes): −0.25 | RNA-seq results: SEPN1 (gene SEPN1, hepatocytes): −0.10 | RNA-seq results: SERAC1 (gene SERAC1, hepatocytes): −0.29 | RNA-seq results: SERPINA1 (gene SERPINA1, hepatocytes): 0.01 | RNA-seq results: SERPING1 (gene SERPING1, hepatocytes): −0.11 | RNA-seq results: SERPINI1 (gene SERPINI1, hepatocytes): −0.36 | RNA-seq results: SETBP1 (gene SETBP1, hepatocytes): 0.22 | RNA-seq results: SFXN4 (gene SFXN4, hepatocytes): −0.33 | RNA-seq results: SLC10A1 (gene SLC10A1, hepatocytes): 0.00 | RNA-seq results: SLC10A3 (gene SLC10A3, hepatocytes): 0.23 | RNA-seq results: SLC10A5 (gene SLC10A5, hepatocytes): 0.63 | RNA-seq results: SLC10A7 (gene SLC10A7, hepatocytes): −0.35 | RNA-seq results: SLC11A2 (gene SLC11A2, hepatocytes): −0.26 | RNA-seq results: SLC19A1 (gene SLC19A1, hepatocytes): −0.42 | RNA-seq results: SLC19A2 (gene SLC19A2, hepatocytes): 0.22 | RNA-seq results: SLC19A3 (gene SLC19A3, hepatocytes): 0.00 | RNA-seq results: SLC22A1 (gene SLC22A1, hepatocytes): −0.07 | RNA-seq results: SLC22A5 (gene SLC22A5, hepatocytes): 0.32 | RNA-seq results: SLC25A1 (gene SLC25A1, hepatocytes): 0.11 | RNA-seq results: SLC25A10 (gene SLC25A10, hepatocytes): −0.12 | RNA-seq results: SLC25A12 (gene SLC25A12, hepatocytes): −0.11 | RNA-seq results: SLC25A13 (gene SLC25A13, hepatocytes): −0.15 | RNA-seq results: SLC25A15 (gene SLC25A15, hepatocytes): −0.21 | RNA-seq results: SLC25A19 (gene SLC25A19, hepatocytes): −0.35 | RNA-seq results: SLC25A20 (gene SLC25A20, hepatocytes): −0.28 | RNA-seq results: SLC25A29 (gene SLC25A29, hepatocytes): 0.25 | RNA-seq results: SLC25A32 (gene SLC25A32, hepatocytes): −0.44
